Structures are written as SMILES. pEC50: −log10 of the molar value.

The pEC50 is −log10 of the EC50, conventionally taken in molar units. Low values mean a high EC50, high ones a low EC50.

One experiment addresses T1, hKv7.2/hKv7.3 (Homo sapiens, UniProt O43525+O43526).
T1 construct: P2A self-cleaving peptide (between Kv7.3 and Kv7.2; the remnant would stay on the upstream protein) (C); expressed in transfected cells
The experiment can be described thus: Thallium influx assay for potassium channel activation. Type of experiment: cell-based. The note with it: HEK-hKv7.2/hKv7.3 cells; FLIPR Potassium Assay kit; AUC readout normalized to a reference compound. On the procedure:
(§1) A synthesized cDNA fragment encoding human Kv7.3 and human Kv7.2 separated by a P2A sequence was inserted into the pcDNA5/FRT/TO vector using the BamHI and XhoI restriction sites. The construct was then transfected into HEK Flp-In 293 cells using Lipofectamine2000. The transfected cells were grown for 48 hours in DMEM containing 10% (v/v) FBS and 1% PenStrep and subsequently maintained under selection in DMEM containing 10% (v/v) FBS, 1% PenStrep and 200 ug/mL Hygromycin B at 37° C. in a humidified atmosphere of 5% CO2.
The thallium influx assay for potassium channel activation was performed analogously to a published procedure (C. D. Weaver, et al., J Biomol Screen 2004, 9, 671-677) using the FLIPR Potassium Assay kit (Molecular Devices). HEK-hKv7.2/hKv7.3 cells were plated onto 96-well, black-walled, clear-bottomed culture plates (Corning, Acton, Mass., USA) at a density of 80,000 cells/well (100 μl/well) if the cells were assayed the following day, or 40,000 cells/well (100 μl/well) if the cells were assayed two days after seeding.
On the assay day, the medium was removed after which 50 uL/well of test compound diluted to 2× final concentration in HBSS containing 20 mM HEPES, and 50 uL/well of 2× dye load buffer were added. The cells were then incubated for 60 min at room temperature in the dark. Chloride-free stimulation buffer containing Tl^+ and K^+ at 5× final concentration (5× concentration: 5 mM in both cases) and test compound at 1× final concentration, were prepared during the incubation. The cells were then assayed in a FDSS7000EX Functional Drug Screening System (Hamamatsu). Following 60 sec of baseline fluorescence signal reading at 0.1 Hz, and 10 sec at 1 Hz, 25 uL/well of stimulation buffer were added and the fluorescence continuously measured for 50 sec at 1 Hz followed, by 4 min at 0.1 Hz. Compound effect was quantified using AUC as readout and normalized to a reference compound, which was included on each plate.
The compound `O=C(CC1(O)CC(F)(F)C1)N[C@@H](COC(F)F)c1cccc(OC(F)F)c1` [Example 26, (R)-2-(3,3-difluoro-1-hydroxycyclobutyl)-N-(2-(difluoromethoxy)-1-(3-(difluoromethoxy)phenyl)ethyl)acetamide] had a negative logarithm of the EC50 (pEC50) of 6.02.

`O=C(CC1(O)CC(F)(F)C1)N[C@@H](COC(F)F)c1cccc(OC(F)(F)F)c1` [Example 27, (R)-2-(3,3-difluoro-1-hydroxycyclobutyl)-N-(2-(difluoromethoxy)-1-(3-(trifluoromethoxy)phenyl)ethyl)acetamide] showed a pEC50 of 5.64. `O=C(CC1(O)CC(F)(F)C1)N[C@@H](COC1CC1)c1cccc(OC(F)(F)F)c1` [Example 28, (R)—N-(2-cyclopropoxy-1-(3-(trifluoromethoxy)phenyl)ethyl)-2-(3,3-difluoro-1-hydroxycyclobutyl)acetamide]: the pEC50 is 5.49. Turning to `O=C(CC1(O)CC(F)(F)C1)N[C@@H](COC1CC1)c1cccc(OC(F)F)c1` [Example 29, (R)—N-(2-cyclopropoxy-1-(3-(difluoromethoxy)phenyl)ethyl)-2-(3,3-difluoro-1-hydroxycyclobutyl)acetamide], the pEC50 was 5.27. On the same count and under the same terms, the value for `O=C(CC1(O)CC(F)(F)C1)N[C@@H](COC(F)(F)F)c1cccc(OC(F)F)c1` [Example 30, (R)-2-(3,3-difluoro-1-hydroxycyclobutyl)-N-(1-(3-(difluoromethoxy)phenyl)-2-(trifluoromethoxy)ethyl)acetamide] was 5.74; that for `CCC[C@H](NC(=O)CC1(O)CC(F)(F)C1)c1cccc(OC(F)F)c1` [Example 31, (S)-2-(3,3-difluoro-1-hydroxycyclobutyl)-N-(1-(3-(difluoromethoxy)phenyl)butyl)acetamide] was 5.59; that for `O=C(CC1(O)CC(F)(F)C1)N[C@@H](CCC(F)F)c1cccc(OC(F)F)c1` [Example 32, (S)-2-(3,3-difluoro-1-hydroxycyclobutyl)-N-(1-(3-(difluoromethoxy)phenyl)-4,4-difluorobutyl)acetamide] was 5.60. Compound `CC[C@H](NC(=O)CC1(O)CC(F)(F)C1)c1cccc(OC(F)(F)F)c1` [Example 33, (S)-2-(3,3-difluoro-1-hydroxycyclobutyl)-N-(1-(3-(trifluoromethoxy)-phenyl)propy) acetamide] showed a pEC50 of 5.68. Consider `N#CC[C@H](NC(=O)CC1(O)CC(F)(F)C1)c1cccc(OC(F)(F)F)c1` [Example 34, (S)—N-(2-cyano-1-(3-(trifluoromethoxy)phenyl)ethyl)-2-(3,3-difluoro-1-hydroxycyclobutyl)acetamide], for which the negative logarithm of the EC50 (pEC50) is 5.60.

In the case of `O=C(CC1(O)CC(F)(F)C1)N[C@@H](CC(F)F)c1cccc(OC(F)(F)F)c1` [Example 35, (S)—N-(3,3-difluoro-1-(3-(trifluoromethoxy)phenyl)propyl)-2-(3,3-difluoro-1-hydroxycyclobutyl)acetamide], the negative-log EC50 (pEC50) is 5.46.

Another experiment deals with T1, hKv7.2/hKv7.3. Put plainly: Automated whole cell patch-clamp functional test of HEK-hKv7.2/hKv7.3 cell line. The note with it: stable HEK-hKv7.2/hKv7.3 cell line. Type of experiment: cell-based. The protocol:
as §1
A general note: The patch-clamp technique gives a direct electrical read-out from membranes.
Regarding `CCOC(=O)Nc1ccc(NCc2ccc(F)cc2)cc1N` [Retigabine, N-(2-amino-4-(4-fluorobenzylamino)-phenyl) carbamic acid ethyl ester], the “effect on Kv7-current” value is “potentiated”. The same measure, in the same setting: in the case of `O=C1c2ccccc2C(Cc2ccncc2)(Cc2ccncc2)c2ccccc21` [XE991] it was “sensitive”.

These data come from patent US11548849B2, “Alcohol derivatives as KV7 potassium channel openers” (H. Lundbeck A/S, priority 2019, dated 2023).
